The text below walks through data of US9957264B2 (Merck Sharp & Dohme Corp., priority 2013, dated 2018).

Structures are written as SMILES.

For assay [1], the target named is JAK2 (recombinant purified GST-tagged catalytic domain) (Homo sapiens (Human), UniProt O60674). The experiment in a line: Jak Biochemical HTRF Assay (JAK2). Conditions: [ATP] 8.5 μM. Background: Time-resolved FRET reads energy transfer from a long-lived donor to a nearby acceptor.
Assay [2] has as its target JAK1 (recombinant purified GST-tagged catalytic domain) (Homo sapiens (Human), UniProt P23458). The experiment in a line: Jak Biochemical HTRF Assay (JAK1). The following applies: [ATP] 31.8 μM. The method in brief:
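HTRF kinase format: compounds pre-equilibrated with recombinant GST-tagged JAK1 or JAK2 catalytic domain, then ATP started a 120 min room-temperature reaction on a common peptide substrate. Phosphopeptide detected via Eu-pY20/streptavidin-Dylight 650 after EDTA quench; percent inhibition versus log concentration fitted (4-parameter) to give IC50.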

Sequence of JAK2 (recombinant purified GST-tagged catalytic domain) (O60674 849-1124): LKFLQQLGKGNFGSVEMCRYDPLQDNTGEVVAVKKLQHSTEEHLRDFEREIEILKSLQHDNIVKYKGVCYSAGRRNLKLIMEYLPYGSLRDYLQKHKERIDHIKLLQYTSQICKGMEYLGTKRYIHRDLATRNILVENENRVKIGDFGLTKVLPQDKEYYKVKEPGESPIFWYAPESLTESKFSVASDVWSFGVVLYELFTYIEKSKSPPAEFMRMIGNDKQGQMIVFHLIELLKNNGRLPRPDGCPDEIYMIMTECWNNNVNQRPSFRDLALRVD
Sequence of JAK1 (recombinant purified GST-tagged catalytic domain) (P23458 875-1153): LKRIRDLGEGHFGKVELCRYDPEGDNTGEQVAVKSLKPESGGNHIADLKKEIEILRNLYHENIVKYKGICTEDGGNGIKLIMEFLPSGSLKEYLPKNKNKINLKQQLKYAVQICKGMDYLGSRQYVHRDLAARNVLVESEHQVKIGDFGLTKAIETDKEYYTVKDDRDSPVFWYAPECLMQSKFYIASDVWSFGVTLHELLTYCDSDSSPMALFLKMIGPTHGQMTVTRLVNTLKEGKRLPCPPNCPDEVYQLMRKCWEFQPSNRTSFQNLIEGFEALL

As to `CS(=O)(=O)c1ccc(Nc2nn([C@]3(CC#N)CCCOC3)c3cc[nH]c(=O)c23)cc1` [Example 5-31, (S)-2-(3-(3-((4-(methylsulfonyl)phenyl)amino)-4-oxo-4,5-dihydro-1H-pyrazolo [4,3-c]pyridin-1-yl)tetrahydro-2H-pyran-3-yl)acetonitrile], the results for the IC50 in assay [1] and in assay [2] were 1.64 nM and 0.26 nM, respectively.
For `CC(C)(C)OC(=O)N1CC(CC#N)(n2nc(Nc3ccnc(F)c3)c3c(=O)[nH]ccc32)C1` [Example 5-46, tert-butyl 3-(cyanomethyl)-3-{3-[(2-fluoropyridin-4-yl)amino]-4-oxo-4,5-dihydro-1H-pyrazolo[4,3-c]pyridin-1-yl}azetidine-1-carboxylate] the same measures were 43.5 nM and 3.53 nM.
For `Cc1cc(Nc2nn(C3(CC#N)CCN(c4cc(C(F)(F)F)ccn4)CC3)c3cc[nH]c(=O)c23)ccc1C(=O)N1CCSCC1` [Example 16-1, 2-(4-(3-(3-methyl-4-(thiomorpholine-4-carbonyl)phenylamino)-4-oxo-4,5-dihydropyrazolo[4,3-c]pyridin-1-yl)-1-(4-(trifluoromethyl)pyridin-2-yl)piperidin-4-yl)acetonitrile] the same measures were 3.06 nM and 2.77 nM.
Take `CC(C)(C)OC(=O)[C@H]1CC[C@](CC#N)(n2nc(Nc3ccc(S(C)(=O)=O)cc3)c3c(=O)[nH]ccc32)CO1` [Example 5-40, (2R,5R)-tert-butyl 5-(cyanomethyl)-5-(3-((4-(methylsulfonyl)phenyl)amino)-4-oxo-4,5-dihydro-1H-pyrazolo [4,3-c]pyridin-1-yl) tetrahydro-2H-pyran-2-carboxylate]: the figures for the IC50 in assay [1] and in assay [2] were 14.6 nM and 2.06 nM, respectively.
In the case of `CC(C)(C)OC(=O)N1CCC(CC#N)(n2nc(Nc3ccc4c(c3)CNC4)c3c(=O)[nH]ccc32)CC1` [Example 5-66, tert-butyl 4-(cyanomethyl)-4-(3-(isoindolin-5-ylamino)-4-oxo-4,5-dihydropyrazolo[4,3-c]pyridin-1-yl)piperidine-1-carboxylate], the IC50 is 0.43 nM in assay [1] and 0.26 nM in assay [2].
As for `CC(C)NC(C)(C)c1ccc(Nc2nn(C3(CC#N)CCN(C(=O)OC(C)(C)C)CC3)c3cc[nH]c(=O)c23)cc1` [Example 5-276, tert-butyl 4-(cyanomethyl)-4-{3-[(4-{1-methyl-1-[(1-methylethyl)amino]ethyl}phenyl)amino]-4-oxo-4,5-dihydro-1H-pyrazolo[4,3-c]pyridin-1-yl}piperidine-1-carboxylate], the results for the IC50 in assay [1] and in assay [2] were 0.4 nM and 0.57 nM, respectively.
The like results for `N#CC[C@]1(n2nc(Nc3ccc(Cl)cc3)c3c(=O)[nH]ccc32)CC[C@H](N2CC(F)C2)CC1` [Example 18-6, Trans 2-(1-(3-((4-chlorophenyl)amino)-4-oxo-4,5-dihydro-1H-pyrazolo[4,3-c]pyridin-1-yl)-4-(3-fluoroazetidin-1-yl)cyclohexyl)acetonitrile] were, in that order, 1.75 nM and 0.09 nM.
For `CCN(C(C)(C)C)S(=O)(=O)c1ccc(Nc2nn(C3(CC#N)CCCC3)c3cc[nH]c(=O)c23)cc1` [Example 5-135, N-(tert-butyl)-4-((1-(1-(cyanomethyl)cyclopentyl)-4-oxo-4,5-dihydro-1H-pyrazolo[4,3-c]pyridin-3-yl)amino)-N-ethylbenzene sulfonamide] the same measures were 1.53 nM and 0.98 nM.
Consider `CC(O)(c1ccc(Nc2nn([C@@]3(CC#N)CCCC[C@H]3F)c3cc[nH]c(=O)c23)cc1)C(F)(F)F` (single isomer, unassigned) [Example 5-86, {(1R,2R)-2-fluoro-1-[4-oxo-3-({4-[(1R or 1S)-2,2,2-trifluoro-1-hydroxy-1-methylethyl]phenyl}amino)-4,5-dihydro-1H-pyrazolo[4,3-c]pyridin-1-yl]cyclohexyl}acetonitrile], for which the IC50 in assay [1] came to 0.11 nM; in assay [2], 0.07 nM.
For `CC(c1c(F)cccc1F)N1CCC(CC#N)(n2nc(Nc3ccc(S(=O)(=O)N(C)C)cc3)c3c(=O)[nH]ccc32)CC1` (centres unmarked) [Example 8-17, 4-((1-(4-(cyanomethyl)-1-(1-(2,6-difluorophenyl)ethyl)piperidin-4-yl)-4-oxo-4,5-dihydro-1H-pyrazolo[4,3-c]pyridin-3-yl)amino)-N,N-dimethylbenzenesulfonamide] the same measures were 3.26 nM and 1.4 nM.
For `CC(c1ccc(Nc2nn([C@]3(CC#N)CCCOC3)c3cc[nH]c(=O)c23)cc1)N1CCCC1` (single isomer, unassigned) [Example 5-200, {(3S)-3-[4-oxo-3-({4-[(1S or 1R)-1-pyrrolidin-1-ylethyl]phenyl}amino)-4,5-dihydro-1H-pyrazolo[4,3-c]pyridin-1-yl]tetrahydro-2H-pyran-3-yl}acetonitrile], the figures for the IC50 in assay [1] and in assay [2] were 0.53 nM and 1.15 nM, respectively.
For `CC(C)(C)OC(=O)N1CC[C@@](CC#N)(n2nc(Nc3ccc(S(C)(=O)=O)cc3)c3c(=O)[nH]ccc32)[C@H](F)C1` (single isomer, unassigned) [Example 5-15, tert-butyl (3R,4S or 3S,4R)-4-(cyanomethyl)-3-fluoro-4-(3-{[4-(methylsulfonyl)phenyl]amino}-4-oxo-4,5-dihydro-1H-pyrazolo[4,3-c]pyridin-1-yl)piperidine-1-carboxylate] the same measures were 3.45 nM and 0.27 nM.
As to `N#CCC1(n2nc(Nc3ccc(C(F)(F)F)cc3)c3c(=O)[nH]ccc32)CCC(O)CC1` (stereo not drawn) [Example 18-5, (cis and trans) 2-(4-hydroxy-1-(4-oxo-3-((4-(trifluoromethyl)phenyl)amino)-4,5-dihydro-1H-pyrazolo[4,3-c]pyridin-1-yl)cyclohexyl)acetonitrile], the IC50 in assay [1] is 84.6 nM; in assay [2] it was 4.14 nM.
For `CC(C)(C)OC(=O)N1CC[C@](CC#N)(n2nc(Nc3ccc4c(c3)CN(C(C)(C)C)S4(=O)=O)c3c(=O)[nH]ccc32)[C@H](F)C1` [Example 5-22, tert-butyl (3R,4R)-4-{3-[(2-tert-butyl-1,1-dioxido-2,3-dihydro-1,2-benzisothiazol-5-yl)amino]-4-oxo-4,5-dihydro-1H-pyrazolo [4,3-c]pyridin-1-yl}-4-(cyanomethyl)-3-fluoropiperidine-1-carboxylate] the same measures were 0.19 nM and 0.15 nM.
The like results for `CNC(=O)c1ccc(Nc2nn(C3(CC#N)CCCC3)c3cc[nH]c(=O)c23)cc1` [Example 5-128, 4-((1-(1-(cyanomethyl)cyclopentyl)-4-oxo-4,5-dihydro-1H-pyrazolo[4,3-c]pyridin-3-yl)amino)-N-methylbenzamide.] were, in that order, 2.24 nM and 0.22 nM.
For `CC(C)S(=O)(=O)c1ccc(Nc2nn([C@]3(CC#N)CCCOC3)c3cc[nH]c(=O)c23)cc1` [Example 5-179, {(3S)-3-[3-({4-[(1-methylethyl)sulfonyl]phenyl}amino)-4-oxo-4,5-dihydro-1H-pyrazolo[4,3-c]pyridin-1-yl]tetrahydro-2H-pyran-3-yl}acetonitrile] the same measures were 0.26 nM and 0.08 nM.
As to `Cc1cc(Nc2nn([C@]3(CC#N)CC[C@@H](C(=O)OC(C)(C)C)OC3)c3cc[nH]c(=O)c23)ccc1-n1cccn1` [Example 5-219, (2S,5S)-tert-butyl 5-(cyanomethyl)-5-(3-((3-methyl-4-(1H-pyrazol-1-yl)phenyl)amino)-4-oxo-4,5-dihydro-1H-pyrazolo [4,3-c]pyridin-1-yl) tetrahydro-2H-pyran-2-carboxylate], the IC50 in assay [1] was determined as 1.36 nM; in assay [2], 0.13 nM.
Take `CN(C)S(=O)(=O)c1ccc(Nc2nn(C3(CC#N)CCN(C(=O)CCc4ccccc4)CC3)c3cc[nH]c(=O)c23)cc1` [Example 9-17, 4-({1-[4-(cyanomethyl)-1-(3-phenylpropanoyl)piperidin-4-yl]-4-oxo-4,5-dihydro-1H-pyrazolo[4,3-c]pyridin-3-yl}amino)-N,N-dimethylbenzenesulfonamide]: the half-inhibitory concentration (IC50) was determined as 0.7 nM in assay [1] and 0.15 nM in assay [2].
For `CN(C)S(=O)(=O)c1ccc(Nc2nn(C3(CC#N)CCN(C(=O)C4CCCCC4)CC3)c3cc[nH]c(=O)c23)cc1` [Example 9-8, 4-({1-[4-(cyanomethyl)-1-(cyclohexylcarbonyl)piperidin-4-yl]-4-oxo-4,5-dihydro-1H-pyrazolo[4,3-c]pyridin-3-yl}amino)-N,N-dimethylbenzenesulfonamide] the same measures were 1.21 nM and 0.16 nM.
For `CC(C)(C)OC(=O)[C@@H]1CC[C@@](CC#N)(n2nc(Nc3ccc(C(N)C(F)(F)F)cc3)c3c(=O)[nH]ccc32)CO1` (stereo partly drawn) [Example 5-104, (2S,5S)-tert-butyl 5-(3-((4-(1-amino-2,2,2-trifluoroethyl)phenyl)amino)-4-oxo-4,5-dihydro-1H-pyrazolo[4,3-c]pyridin-1-yl)-5-(cyanomethyl)tetrahydro-2H-pyran-2-carboxylate] the same measures were 0.27 nM and 0.07 nM.
The like results for `Cc1cc(Nc2nn(C3(CC#N)CCN(C(=O)OC(C)(C)C)CC3)c3cc[nH]c(=O)c23)ccc1C(=O)N1CCOCC1` [Example 21-20, tert-butyl 4-(cyanomethyl)-4-(3-(3-methyl-4-(morpholine-4-carbonyl)phenylamino)-4-oxo-4,5-dihydropyrazolo[4,3-c]pyridin-1-yl)piperidine-1-carboxylate] were, in that order, 0.17 nM and 0.18 nM.
Turning to `CC(C)(C)OC(=O)[C@@H]1CC[C@](CC#N)(n2nc(Nc3ccc(S(C)(=O)=O)cc3)c3c(=O)[nH]ccc32)CO1` (racemic) [Example 5-35, (2R,5S and 2S,5R)-tert-butyl 5-(cyanomethyl)-5-(3-((4-(methylsulfonyl)phenyl)amino)-4-oxo-4,5-dihydro-1H-pyrazolo [4,3-c]pyridin-1-yl) tetrahydro-2H-pyran-2-carboxylate], the IC50 was 29.3 nM in assay [1] and 3.43 nM in assay [2].

Usually IC50 stands for the concentration that inhibits the measured activity by half.
